Source: paper PMC10276812, “Cannabidiol inhibits Nav channels through two distinct binding sites” (Nature Communications, 2023)

Assays:
Assay type in all cases: cell-based
[1] = biological target: T1, Nav1.7 (Homo sapiens, UniProt Q15858, N1459A/S1320A); assay: whole-cell patch clamp in transfected HEK293T cells
T1 construct: gene SCN9A

[2] = biological target: T2, Nav1.7 (Homo sapiens, UniProt Q15858, V383A); assay: as above
T2 construct: gene SCN9A

[3] = biological target: T3, Nav1.7 (Homo sapiens, UniProt Q15858, S1320A); assay: as above
T3 construct: gene SCN9A

[4] = biological target: T4, Nav1.7 (Homo sapiens, UniProt Q15858, N1459A); assay: as above
T4 construct: gene SCN9A

[5] = biological target: T5, Nav1.7 (Homo sapiens, UniProt Q15858, F387A); assay: as above
T5 construct: gene SCN9A

[6] = biological target: T6, Nav1.7 (Homo sapiens, UniProt Q15858); assay: cryo-EM structure at […] Å; Kd for the inactivated state calculated from patch-clamp (alpha subunit alone)
T6 construct: gene SCN9A; no beta subunit stated for this line
T6 sequence (Q15858 whole entry): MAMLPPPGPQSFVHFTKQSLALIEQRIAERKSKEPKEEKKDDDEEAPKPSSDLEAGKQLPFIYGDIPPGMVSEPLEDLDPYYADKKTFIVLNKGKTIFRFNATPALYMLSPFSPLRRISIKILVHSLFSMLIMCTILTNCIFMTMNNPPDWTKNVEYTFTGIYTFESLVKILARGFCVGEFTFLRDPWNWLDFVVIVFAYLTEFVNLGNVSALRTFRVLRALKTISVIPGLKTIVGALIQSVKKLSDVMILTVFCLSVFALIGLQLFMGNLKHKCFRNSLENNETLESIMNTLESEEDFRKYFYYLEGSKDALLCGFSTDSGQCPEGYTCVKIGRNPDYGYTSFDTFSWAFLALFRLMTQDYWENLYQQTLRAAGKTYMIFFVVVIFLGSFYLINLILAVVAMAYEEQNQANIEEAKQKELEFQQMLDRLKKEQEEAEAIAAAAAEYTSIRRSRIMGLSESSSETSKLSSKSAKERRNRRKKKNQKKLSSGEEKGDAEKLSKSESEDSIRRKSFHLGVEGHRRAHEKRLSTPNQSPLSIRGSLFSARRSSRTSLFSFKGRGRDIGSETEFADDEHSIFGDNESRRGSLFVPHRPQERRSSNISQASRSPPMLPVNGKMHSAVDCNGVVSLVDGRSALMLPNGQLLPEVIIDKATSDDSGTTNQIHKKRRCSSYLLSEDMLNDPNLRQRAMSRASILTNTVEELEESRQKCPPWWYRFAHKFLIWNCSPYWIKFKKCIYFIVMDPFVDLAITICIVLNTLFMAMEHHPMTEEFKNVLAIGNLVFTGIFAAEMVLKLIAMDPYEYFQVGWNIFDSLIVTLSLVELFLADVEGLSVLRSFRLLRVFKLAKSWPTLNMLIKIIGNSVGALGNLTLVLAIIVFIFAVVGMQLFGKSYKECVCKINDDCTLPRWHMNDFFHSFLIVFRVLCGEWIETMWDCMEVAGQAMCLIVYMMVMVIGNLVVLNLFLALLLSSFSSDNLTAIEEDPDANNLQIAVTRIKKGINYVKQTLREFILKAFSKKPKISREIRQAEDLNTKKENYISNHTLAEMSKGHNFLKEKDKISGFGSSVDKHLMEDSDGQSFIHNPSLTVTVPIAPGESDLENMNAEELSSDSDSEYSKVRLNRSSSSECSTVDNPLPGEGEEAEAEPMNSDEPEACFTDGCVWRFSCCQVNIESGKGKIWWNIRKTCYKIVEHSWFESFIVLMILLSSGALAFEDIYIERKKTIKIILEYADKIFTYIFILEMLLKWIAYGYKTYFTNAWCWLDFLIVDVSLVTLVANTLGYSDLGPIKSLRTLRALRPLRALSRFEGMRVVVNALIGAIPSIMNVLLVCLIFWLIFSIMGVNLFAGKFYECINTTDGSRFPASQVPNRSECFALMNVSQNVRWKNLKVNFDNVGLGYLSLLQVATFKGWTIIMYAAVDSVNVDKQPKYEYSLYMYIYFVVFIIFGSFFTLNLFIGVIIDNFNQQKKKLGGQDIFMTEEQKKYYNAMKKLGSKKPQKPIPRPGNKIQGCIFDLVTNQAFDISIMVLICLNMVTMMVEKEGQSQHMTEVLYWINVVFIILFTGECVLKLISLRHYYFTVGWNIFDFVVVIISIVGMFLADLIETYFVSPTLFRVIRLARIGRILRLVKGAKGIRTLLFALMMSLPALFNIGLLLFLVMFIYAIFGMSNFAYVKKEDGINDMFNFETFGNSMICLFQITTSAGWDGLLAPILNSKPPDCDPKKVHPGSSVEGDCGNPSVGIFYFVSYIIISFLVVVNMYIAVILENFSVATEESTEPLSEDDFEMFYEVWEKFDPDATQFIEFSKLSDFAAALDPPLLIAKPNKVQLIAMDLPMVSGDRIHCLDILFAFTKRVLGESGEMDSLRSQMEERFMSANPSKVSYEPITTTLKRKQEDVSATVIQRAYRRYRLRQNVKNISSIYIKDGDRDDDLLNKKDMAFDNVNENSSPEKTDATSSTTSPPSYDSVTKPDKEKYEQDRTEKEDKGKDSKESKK

T5 sequence (Q15858 whole entry F387A): as the sequence (Q15858 whole entry) above, with F387A counted along it
T1 sequence (Q15858 whole entry S1320A/N1459A): as the sequence (Q15858 whole entry) above, with S1320A, N1459A counted along it
T4 sequence (Q15858 whole entry N1459A): as the sequence (Q15858 whole entry) above, with N1459A counted along it
T2 sequence (Q15858 whole entry V383A): as the sequence (Q15858 whole entry) above, with V383A counted along it
T3 sequence (Q15858 whole entry S1320A): as the sequence (Q15858 whole entry) above, with S1320A counted along it

`C=C(C)[C@@H]1CCC(C)=C[C@H]1c1c(O)cc(CCCCC)cc1O` [CBD, Cannabidiol] was tested, and the IC50 [1] was 4.28 ± 0.67 µM, the IC50 [2] was 3.56 ± 0.58 µM and the IC50 [3] was 3.81 ± 0.42 µM. For the same molecule, the IC50 [4] was 2.46 ± 0.28 µM, the IC50 [5] was 3.65 ± 0.78 µM and the Kd [6] was about 0.05 µM.
